# Measurements as given in US9744175B2, “Compositions of combinations of non-covalent DNA binding agents and anti-cancer and/or anti-inflammatory agents and their use in disease treatment” (INDUS PHARMACEUTICALS, INC., priority 2012, dated 2017).
# “And” between values parts separate entries of the source, which are not always exact repeats. Equal entries are not always repeated.
# Assays:
# [1] = Intravenous and oral pharmacokinetics in male Sprague-Dawley rats; format: in vivo, rat; conditions: for AUC0-inf / AUC0-t / Cmax / Tmax: rat blood; for AUC0-inf / AUC0-t / Cmax: mean ± SD; for Tmax: median; for T1/2: harmonic mean; for F (oral absolute bioavailability): oral 20 mg/kg vs IV 3 mg/kg, dose-normalised AUC0-inf; for clearance as share of normal liver blood flow in rat (55 mL/min/kg) / mean volume of distribution as multiple of total body water: intravenous administration
# Description: Intravenous and oral pharmacokinetic studies are conducted on the novel non-covalent DNA binding agents, NSC 718813, NSC 723734 and NSC 726260, in male Sprague-Dawley rats. The studies are conducted in a parallel design with two groups of four male rats each for intravenous and oral administration of the test agents. The protocols for the studies are approved by the appropriate institutional animal care and use committee.
# Groups of rats designated to receive oral doses of the novel non-covalent DNA binding agents of the invention molecules receive an oral dose of 20 mg/kg in a formulation vehicle comprised of N,N-dimethylacetamide (DMA), polyethylene glycol 400 (PEG400), ethanol, Cremophor EL and water (10:10:10:5:65 v/v). The dose volume for the oral doses of the test compounds is 8 mL/kg. Groups of rats are randomized to receive intravenous doses of agents. These rats receive a single intravenous bolus dose of 3 mg/kg of the test compound in a vehicle comprised of DMA:PEG400:ethanol:Cremophor EL:0.9% sodium chloride (saline) (10:10:10:5:65 v/v). The dose volume for intravenous doses of test agents is 1 mL/kg.
# Predose blood samples are obtained from all rats from both, oral and intravenous dosing groups. For the intravenously dosed rats, blood samples (100 uL each) are obtained at 0.083, 0.25. 0.5, 1.0, 2.0, 4.0, 8.0, 12.0 and 24.0 hours post-dose. For the oral dose groups, the sampling times are identical to the intravenous dose group, except that the 0.083 hour sample is not collected. Following the collection of the blood samples, an equal volume of water is added to the blood sample to hemolyze the blood sample and the samples are stored frozen at −70° C. until bioanalysis.
# Plasma samples are analyzed for the concentration of the test non-covalent DNA binding agents of the invention using an HPLC method with mass spectrometric (MS/MS) detection, following a liquid:liquid extraction of the plasma samples using a dichloromethane:ethyl acetate (20:80) mixture. To a 100 μL aliquot of sample, 50 μL of an internal standard (NSC 723732) is added. After mixing the internal standard wen, 2.5 mL of the extracting solvent (dichloromethane:ethyl acetate 20:80 v/v) is added. The mixture is vortexed for one minute and the samples are centrifuged at 3000 rpm for 3 minutes. Approximately 2 mL of the supernatant is taken from the centrifuged tubes and the sample is dried under a nitrogen stream at 50° C. The residue is reconstituted with 100 μL of the mobile phase and 20 μL is injected into the HPLC system for analysis. The mobile phase is comprised of milli-Q water:acetonitrile:formic acid (20:80:0.05) adjusted to pH 7.5 with ammonia.
# The analysis of the test agent concentration is conducted by an HPLC method using a Shimadzu Prominence HPLC system and the eluent is analyzed using an API 4000 LC-MS/MS system (Applied Biosystems). The samples are analyzed on a HyPurity Advance, 50×4.6 mm, 5 u, Thermoelectron column. An injection volume of 20 μL is used for the analytical sample and the flow rate of the mobile phase is 0.6 mL/minute. Mass spectrometric analysis is conducted on the eluent using the API 4000 LC-MS/MS system and the mass parameters are analyzed for MRM transitions using NSC 723732 as the internal standard, in a positive ionization mode at a temperature of 400 C.
# [2] = system: HCT116 (mlh−); assay: siRNA inhibition of p53 and REV functions, alamar blue growth inhibition; format: cell-based, human; conditions: for Fold improvement in IC50, p53: p53 siRNA vs control; for Fold improvement in IC50, rev: rev siRNA vs control; for IC50: no siRNA knock out, read-out: IC50, Control
# Description: (§1) siRNA specific for different genes is purchased from Dharmacon (Thermo. Fisher Scientific Dharmacon Products, Lafayette, Colo. 80026) and the protocol recommended by the supplier is utilized. Confluent cells are trypsinized and 5000 cells are seeded in a well in the presence or absence of siRNA in 100 μL medium. The cells are incubated with siRNA for two days. A non-covalent DNA binding agent of the invention is added in a 10 μL volume and incubated for another 48 hours. After treatment with the agent, the medium is replaced with 1% alamar blue containing medium to measure fluorescence after two hours.
# as §1, with “from Dharmacon (Thermo Fisher Scientific” for “from Dharmacon (Thermo. Fisher Scientific”, “two hours. […] The results are presented in FIGS. 14-18 (SEQ ID NO:3-12, respectively) and Table 7.” for “two hours.”
# [3] = system: U2OS Wild type; assay: siRNA inhibition of MMR, p53 and REV functions, alamar blue growth inhibition; format: cell-based, human; conditions: for Fold improvement in IC50, mlh1: mlh1 siRNA vs control; for IC50: no siRNA knock out, read-out: IC50, Control; for Fold improvement in IC50, p53: p53 siRNA vs control; for Fold improvement in IC50, rev: rev siRNA vs control
# Description: as §1
# as §1, with “from Dharmacon (Thermo Fisher Scientific” for “from Dharmacon (Thermo. Fisher Scientific”, “two hours. […] The results are presented in FIGS. 14-18 (SEQ ID NO:3-12, respectively) and Table 7.” for “two hours.”
# [4] = system: Jurkat; assay: Growth inhibition in tumor cell lines (Table 2); format: cell-based, human; conditions: leukemia, PTEN deficiency
# [5] = system: SW403; assay: Growth inhibition in tumor cell lines (Table 2); format: cell-based, human; conditions: SW403, colon, WT (EGFR over expression)
# [6] = system: MDA-MB-468; assay: Growth inhibition in tumor cell lines (Table 2); format: cell-based, human; conditions: MDA-MB-468, breast, ERK+ (EGFR over expression), PTEN deficiency
# Description: Three novel non-covalent DNA binding agents of the invention, NSC 718813, NSC 723734 and NSC 726260, are tested in five different EGFR-resistant, K-Ras mutant cancer cell lines. These cell lines represent colorectal (SW480, SW620 and HCT116) and breast cancer (MDA-MB-231 and […]).
# The in vitro assays to evaluate the anticancer potential of non-covalent DNA binding agents were measured by using one or more of the assays described below.
# Tumor cells are plated in 96 well plates at a density of 8,000 to 10,000 cells per well in 100 uL volume and grown overnight. On the second day, the cells are supplemented with medium containing an appropriate dilution of the compounds to be tested. The cells are treated with the test compounds for two more days and the growth medium was replaced with fresh medium containing 3% Alamar Blue, incubated for 2-3 hours and plates are read in a SpectraMax Gemini XS fluorescence plate reader (Molecular Devices).
# [7] = system: U2OS; assay: Growth inhibition in tumor cell lines (Table 2); format: cell-based, human; conditions: Osteosacroma, WT, lack of EGFR
# [8] = IV-bolus 3 mg/kg, rat, listed as NSC723734, 3 mg/kg
SMILES,AUC0-inf ([1]; IV-bolus 3 mg/kg) [ng·h/mL],AUC0-t ([1]; IV-bolus 3 mg/kg) [ng·h/mL],Cmax ([1]; IV-bolus 3 mg/kg) [ng/mL],Tmax ([1]; IV-bolus 3 mg/kg) [h],"T1/2 ([1]; IV-bolus 3 mg/kg, rat) [h]","CLblood ([1]; IV-bolus 3 mg/kg, rat, 3 mg/kg)",AUC0-inf ([1]; oral solution 20 mg/kg) [ng·h/mL],AUC0-t ([1]; oral solution 20 mg/kg) [ng·h/mL],Cmax ([1]; oral solution 20 mg/kg) [ng/mL],Tmax ([1]; oral solution 20 mg/kg) [h],"T1/2 ([1]; oral solution 20 mg/kg, rat) [h]","Fold improvement in IC50, p53 [2] [fold]","Fold improvement in IC50, rev [2] [fold]","Fold improvement in IC50, mlh1 [3] [fold]",IC50 [3] [nM],"Fold improvement in IC50, p53 [3] [fold]","Fold improvement in IC50, rev [3] [fold]",IC50 [4] [nM],IC50 [5] [nM],IC50 [6] [nM],further results
COc1cc2c(cc1OCCCCCOc1cc3c(cc1OC)C(=O)N1CCC[C@H]1C(=O)N3)N=C[C@@H]1CCCN1C2=O [NSC 718813],2424 ± 309,2376 ± 304,5723 ± 1005,0.08,2.2 ± 0.4,approximately 20 mL/min/kg,345 ± 142,303 ± 129,112 ± 32,0.5,1.8 ± 0.6,12.5,7.1,3.0,300,10,5,17 ± 0.2,210,8 ± 1.2,"Vdss ([1]; IV-bolus 3 mg/kg, rat): 1.5 ± 0.4 L/kg; CLblood ([1]; IV-bolus 3 mg/kg, rat, listed as NSC 718813/1, 3 mg/kg): 20.0 ± 2.9 mL/min/kg; time with rat blood concentrations well above in vitro GI50 and/or TGI ([1]; intravenous 3 mg/kg): at least 4 hours; F (oral absolute bioavailability) ([1]; rat): 2%; time with measurable blood levels post-dose ([1]; oral dose 20 mg/kg): up to 8 hours; metabolic stability compared with naturally occurring antitumor antibiotic analogs ([1]; rat, inferred from systemic clearance): better metabolic stability; IC50 [7]: 202 nM"
COc1cc2c(cc1OCCCCN1CCN(CCCCOc3cc4c(cc3OC)C(=O)N3CCC[C@H]3C=N4)CC1)N=C[C@@H]1CCCN1C2=O [NSC 723734],4405,4246 ± 311,4053,0.083,6.3,11.4 ± 0.5 mL/min/kg,216,196 ± 93,90.5 ± 56,0.25,2.3 ± 0.7,2.2,2.2,3.5,70,1.2,>70,45 ± 4,550,22 ± 0.7,"Vdss ([1]; IV-bolus 3 mg/kg, rat, 3 mg/kg): 3.2 ± 0.3 L/kg; CLblood [1, 8]: 11 mL/min/kg; Vdss [1, 8]: 3 L/kg; clearance as share of normal liver blood flow in rat (55 mL/min/kg) ([1]; rat): about 20%; mean volume of distribution as multiple of total body water ([1]; rat): about 4 times; F (oral absolute bioavailability) ([1]; rat): 0.7%; F (oral absolute bioavailability) ([1]; rat, listed as NSC723734): approximately 1%; Cmax ([1]; oral solution 20 mg/kg, listed as NSC723734): 91 ng/mL; IC50 [2]: 300 nM; IC50 [7]: 178 nM"
COc1cc2c(cc1OCCCC(=O)Nc1ccc3ccc4cccc5ccc1c3c45)N=C[C@@H]1CCCN1C2=O [NSC 726260],5112,5058 ± 874,5587,0.083,4.8,10.4 mL/min/kg and 10.4 ± 2.0 mL/min/kg,2536,2474 ± 844,438,4.0,4.6 ± 1.7,3.8,5.0,135,400,1.1,135,114 ± 26.7,1020,364,"Vdss ([1]; IV-bolus 3 mg/kg, rat): 1.9 L/kg; clearance as share of normal liver blood flow in rat (55 mL/min/kg) ([1]; rat): about 20%; mean volume of distribution as multiple of total body water ([1]; rat): about 3 times; IC50 [2]: 750 nM; IC50 [7]: 397 nM"
